Measured values reported in publication PMC10323144, “Garbage in, garbage out: how reliable training data improved a virtual screening approach against SARS-CoV-2 MPro” (Frontiers in Pharmacology, 2023).
Square brackets hold non-standard residues; d marks the D form. Peptide text beside a SMILES is read from it. * marks the point of attachment. ξ: configuration not given here. Boc = CC(C)(C)OC(=O)*; ξV = CC(C)C(N)C(=O)O; GABA = NCCCC(=O)O; ξA = CC(N)C(=O)O

Each molecule was assayed against SARS-CoV-2 MPro (Severe acute respiratory syndrome coronavirus 2, UniProt P0DTD1) (assay: MPro activity assay (de-quenching of Edans fluorescence on cleavage of a Dabcyl/Edans peptide)). Details: 60 min pre-incubation, 5 μM substrate.
Type: biochemical

SMILES	IC50 [µM]
O=C(/C=C/c1ccc2ccccc2c1)c1ccccc1O [25d]	0.5
COC(=O)[C@@H](Cc1ccccc1)NC(=O)C(C)NC(=O)[C@@H](NC(=O)C(NC(=O)CCCNC(=O)OC(C)(C)C)C(C)C)C(C)C (some centres unmarked) [2a] ({Boc-GABA}-[ξV]V[ξA][dF]-OMe)	32.1 ± 1.4

Same assay, conditions: in-house acquired data, internal screening under standardized conditions (128 compounds)

SMILES	Class (MPro activity class)
CNC(=S)NN=C(C)c1c(O)c2ccccc2oc1=O [COV19141]	0 (compounds with IC50 > 20 μM, percentage inhibition <80% at 20 µM or 50 μM, or percentage enzyme inhibition <50% at 10 µM were labelled as INACTIVE)
COC(=O)c1ccc(-c2ccc(C3C(Oc4ccccc4)C(=O)N3Cc3ccccc3)cc2)cc1 (centres unmarked) [Mal2]	0 (compounds with IC50 > 20 μM, percentage inhibition <80% at 20 µM or 50 μM, or percentage enzyme inhibition <50% at 10 µM were labelled as INACTIVE)
Cc1ccc(-n2sc3cc(Cl)cc(C)c3c2=O)cc1 [COV19018]	1 (Compounds with IC50 < 10 µM or with a percentage of enzyme inhibition >50% at 10 µM were labelled as ACTIVE)
CCNC(=S)NN=C(C)c1c(O)c2ccccc2oc1=O [COV19142]	0 (compounds with IC50 > 20 μM, percentage inhibition <80% at 20 µM or 50 μM, or percentage enzyme inhibition <50% at 10 µM were labelled as INACTIVE)
Cc1cc(Cl)cc(I)c1C(=O)NCc1ccccc1 [COV19039]	0 (compounds with IC50 > 20 μM, percentage inhibition <80% at 20 µM or 50 μM, or percentage enzyme inhibition <50% at 10 µM were labelled as INACTIVE)
O=C(C1=C(O)C(=O)N(c2nc3ccc(Cl)cc3s2)C1c1ccccc1)c1ccc2c(c1)OCCO2 (centres unmarked) [ADRMC159]	0 (compounds with IC50 > 20 μM, percentage inhibition <80% at 20 µM or 50 μM, or percentage enzyme inhibition <50% at 10 µM were labelled as INACTIVE)
COc1cc(C2C(C(=O)c3ccc4c(c3)OCCO4)=C(O)C(=O)N2c2nc3ccc(Cl)cc3s2)ccc1O (centres unmarked) [ADRMC158]	0 (compounds with IC50 > 20 μM, percentage inhibition <80% at 20 µM or 50 μM, or percentage enzyme inhibition <50% at 10 µM were labelled as INACTIVE)
O=C1NCCCCC1n1sc2ccccc2c1=O (centres unmarked) [COV19020]	1 (Compounds with IC50 < 10 µM or with a percentage of enzyme inhibition >50% at 10 µM were labelled as ACTIVE)
O=C(Nc1ccc([N+](=O)[O-])cc1)c1ccccc1I [COV19030]	0 (compounds with IC50 > 20 μM, percentage inhibition <80% at 20 µM or 50 μM, or percentage enzyme inhibition <50% at 10 µM were labelled as INACTIVE)
C(=Cc1ccco1)C=Nn1cnnc1 [COV19287]	0 (compounds with IC50 > 20 μM, percentage inhibition <80% at 20 µM or 50 μM, or percentage enzyme inhibition <50% at 10 µM were labelled as INACTIVE)
CCn1nc(C)cc1C(=O)N(Cc1ccccc1)Cc1ccccc1 [ZVR-117]	0 (compounds with IC50 > 20 μM, percentage inhibition <80% at 20 µM or 50 μM, or percentage enzyme inhibition <50% at 10 µM were labelled as INACTIVE)
COc1ccc(CNC(=O)c2ccccc2I)cc1 [COV19024]	0 (compounds with IC50 > 20 μM, percentage inhibition <80% at 20 µM or 50 μM, or percentage enzyme inhibition <50% at 10 µM were labelled as INACTIVE)
COc1ccc(C2C(C(=O)c3ccc4c(c3)OCCO4)=C(O)C(=O)N2c2nc3ccccc3s2)cc1 (centres unmarked) [ADKPN165]	0 (compounds with IC50 > 20 μM, percentage inhibition <80% at 20 µM or 50 μM, or percentage enzyme inhibition <50% at 10 µM were labelled as INACTIVE)
O=c1c2ccccc2sn1-c1nc2cc(Sc3ccccc3)ccc2[nH]1 [COV19021]	1 (Compounds with IC50 < 10 µM or with a percentage of enzyme inhibition >50% at 10 µM were labelled as ACTIVE)
O=C(O)C(=O)Nc1nc2c(s1)CC(NC(=O)c1cc(Br)c(Br)[nH]1)CC2 (centres unmarked) [Cpd 56]	0 (compounds with IC50 > 20 μM, percentage inhibition <80% at 20 µM or 50 μM, or percentage enzyme inhibition <50% at 10 µM were labelled as INACTIVE)
Nc1nc2c(s1)CC(NC(=O)c1cc3cc(F)ccc3[nH]1)CC2 (centres unmarked) [Cpd 48]	0 (compounds with IC50 > 20 μM, percentage inhibition <80% at 20 µM or 50 μM, or percentage enzyme inhibition <50% at 10 µM were labelled as INACTIVE)
CNC(=S)NN=C(C)c1cc2ccccc2oc1=O [COV19137]	0 (compounds with IC50 > 20 μM, percentage inhibition <80% at 20 µM or 50 μM, or percentage enzyme inhibition <50% at 10 µM were labelled as INACTIVE)
O=C(Nc1ccc(Cl)cc1)c1ccccc1I [COV19027]	0 (compounds with IC50 > 20 μM, percentage inhibition <80% at 20 µM or 50 μM, or percentage enzyme inhibition <50% at 10 µM were labelled as INACTIVE)
Cc1ccc(NC(=O)c2c(C)cc(Cl)cc2I)cc1 [COV19038]	0 (compounds with IC50 > 20 μM, percentage inhibition <80% at 20 µM or 50 μM, or percentage enzyme inhibition <50% at 10 µM were labelled as INACTIVE)
O=C(NCc1ccc(C(F)(F)F)cc1)c1ccccc1I [COV19032]	0 (compounds with IC50 > 20 μM, percentage inhibition <80% at 20 µM or 50 μM, or percentage enzyme inhibition <50% at 10 µM were labelled as INACTIVE)

SMILES	Class (MPro activity class)
CC(C)(C)OC(=O)NC1CCCN(CC(=O)NC(Cc2ccccc2)C(=O)Nc2nc3cc(Sc4ccccc4)ccc3[nH]2)C1=O (centres unmarked) [COV19184]	0 (compounds with IC50 > 20 μM, percentage inhibition <80% at 20 µM or 50 μM, or percentage enzyme inhibition <50% at 10 µM were labelled as INACTIVE)
Cc1cccc2c(=O)[nH]sc12 [COV19002]	0 (compounds with IC50 > 20 μM, percentage inhibition <80% at 20 µM or 50 μM, or percentage enzyme inhibition <50% at 10 µM were labelled as INACTIVE)
O=C(Nc1nc2cc(Sc3ccccc3)ccc2[nH]1)c1ccccc1I [COV19029]	0 (compounds with IC50 > 20 μM, percentage inhibition <80% at 20 µM or 50 μM, or percentage enzyme inhibition <50% at 10 µM were labelled as INACTIVE)
CCOC(=O)C(=O)NC1CCc2nc(NC(=O)c3cc(Cl)c(Cl)[nH]3)sc2C1 (centres unmarked) [Cpd 50]	0 (compounds with IC50 > 20 μM, percentage inhibition <80% at 20 µM or 50 μM, or percentage enzyme inhibition <50% at 10 µM were labelled as INACTIVE)
Cc1c(C(=O)Nc2ccccc2)[n+]([O-])c2cc(CN(C)CC=Cc3ccccc3)ccc2[n+]1[O-] [COV19291]	0 (compounds with IC50 > 20 μM, percentage inhibition <80% at 20 µM or 50 μM, or percentage enzyme inhibition <50% at 10 µM were labelled as INACTIVE)
CCOC(=O)CN(C(=O)C1(C)CCc2c(C)c(O)c(C)c(C)c2O1)C(C(=O)NCCc1ccccc1)c1ccccc1 (centres unmarked) [vCOV194134]	0 (compounds with IC50 > 20 μM, percentage inhibition <80% at 20 µM or 50 μM, or percentage enzyme inhibition <50% at 10 µM were labelled as INACTIVE)
O=C1C(Oc2ccccc2)C(c2ccc(B(O)O)cc2)N1Cc1ccccc1 (centres unmarked) [Mal3]	0 (compounds with IC50 > 20 μM, percentage inhibition <80% at 20 µM or 50 μM, or percentage enzyme inhibition <50% at 10 µM were labelled as INACTIVE)
Cc1cccc(Cl)c1NC(=O)c1ccccc1I [COV19028]	0 (compounds with IC50 > 20 μM, percentage inhibition <80% at 20 µM or 50 μM, or percentage enzyme inhibition <50% at 10 µM were labelled as INACTIVE)
O=c1[nH]sc2ccccc12 [COV19001]	1 (Compounds with IC50 < 10 µM or with a percentage of enzyme inhibition >50% at 10 µM were labelled as ACTIVE)
Nc1ncc2cc(-c3c(F)cccc3F)c(N)nc2n1 [ZEA107]	0 (compounds with IC50 > 20 μM, percentage inhibition <80% at 20 µM or 50 μM, or percentage enzyme inhibition <50% at 10 µM were labelled as INACTIVE)
O=c1c2ccccc2sn1Cc1ccc(C(F)(F)F)cc1 [COV19004]	1 (Compounds with IC50 < 10 µM or with a percentage of enzyme inhibition >50% at 10 µM were labelled as ACTIVE)
O=C(Nc1cccc2ccccc12)c1ccccc1I [COV19033]	0 (compounds with IC50 > 20 μM, percentage inhibition <80% at 20 µM or 50 μM, or percentage enzyme inhibition <50% at 10 µM were labelled as INACTIVE)
O=c1c2ccccc2sn1Cc1ccc(F)cc1 [COV19003]	1 (Compounds with IC50 < 10 µM or with a percentage of enzyme inhibition >50% at 10 µM were labelled as ACTIVE)
CC(=NNC(N)=S)c1cc2ccccc2oc1=O [COV19136]	0 (compounds with IC50 > 20 μM, percentage inhibition <80% at 20 µM or 50 μM, or percentage enzyme inhibition <50% at 10 µM were labelled as INACTIVE)
Cc1cccc2c(=O)n(Cc3ccccc3)sc12 [COV19007]	0 (compounds with IC50 > 20 μM, percentage inhibition <80% at 20 µM or 50 μM, or percentage enzyme inhibition <50% at 10 µM were labelled as INACTIVE)
COc1cccc(OC)c1NC(=O)c1ccccc1I [COV19031]	0 (compounds with IC50 > 20 μM, percentage inhibition <80% at 20 µM or 50 μM, or percentage enzyme inhibition <50% at 10 µM were labelled as INACTIVE)
O=c1c2ccccc2sn1-c1ccc2ccccc2c1 [COV19013]	1 (Compounds with IC50 < 10 µM or with a percentage of enzyme inhibition >50% at 10 µM were labelled as ACTIVE)
O=C(Nc1ccccc1)c1ccccc1I [COV19026]	0 (compounds with IC50 > 20 μM, percentage inhibition <80% at 20 µM or 50 μM, or percentage enzyme inhibition <50% at 10 µM were labelled as INACTIVE)
COc1cc(OC)cc(-c2cc3cnc(N)nc3nc2N)c1 [ZVR-100]	0 (compounds with IC50 > 20 μM, percentage inhibition <80% at 20 µM or 50 μM, or percentage enzyme inhibition <50% at 10 µM were labelled as INACTIVE)

Same assay, conditions: read-out: MPro activity (%)

SMILES	activity at 25 µM [%]
O=C(c1ccc2no[n+]([O-])c2c1)N1CCOCC1 [21d]	78.7 ± 3.2
[O-][n+]1onc2ccc(/C=C\Sc3ccc(F)cc3)cc21 [9d]	81.4 ± 21.5
CC(=O)OC[C@H]1O[C@@H](Sc2ccccc2)[C@H](OC(C)=O)[C@@H](OC(C)=O)C1OC(C)=O (some centres unmarked) [6a]	60.9 ± 1.5
[O-][n+]1onc2ccc(/C=C/[S+]([O-])c3ccc(F)cc3)cc21 (centres unmarked) [10d]	55.6 ± 3.4
O=S(=O)(/C=C\c1ccc2no[n+]([O-])c2c1)c1ccc(Cl)cc1 [13d]	58 ± 0.3
O=S(=O)(/C=C\c1ccc2no[n+]([O-])c2c1)c1ccccc1 [18d]	71.2 ± 0.9
[O-][n+]1onc2ccc(/C=C\c3ccc4c(c3)OCO4)cc21 [15d]	67.4 ± 1.8

Same assay, conditions: read-out: MPro inhibition

SMILES	inhibition at 25 µM [%]
COc1ccc(S(=O)(=O)Nc2nc3cc(Cl)c(Oc4cccc(Cl)c4Cl)cc3[nH]2)cc1 [30d]	42
[O-][n+]1cc[n+]([O-])c2ccccc21 [38d]	20 to 40
